Experiments:
ICR mice = assay: Acute oral toxicity, single administration, 7 days observation; format: in vivo; settings: 500 mg/kg orally once
stress ulcer = assay: Stress ulcer inhibiting effect, water immersion method (Takagi and Okabe); format: in vivo; settings: rats, 50 mg/kg, i.p.; **: P < 0.05
Description: The stress ulcer inhibiting effect of the drug was investigated in rats in accordance with the water immersion method described by K. Takagi and S. Okabe, Jap. J. Pharmacol. 18, 9, 1968.

Structure (SMILES): O=C(O)C(O)c1ccc2c(c1)C(=O)C1(CC1)O2 (centres unmarked)
- death during observation period (ICR mice): no death was found
- % Inhibition (stress ulcer) (stress ulcer): 56%

Source: patent publication US4558068A, “Spirobenzofuranones and their use in treating peptic ulcers” (Takeda Chemical Industries, Ltd., priority 1983, dated 1985)
